From patent publication EP0355612B1, “Furylthiazole derivatives, processes for the preparation thereof and pharmaceutical composition comprising the same” (FUJISAWA PHARMACEUTICAL CO., LTD., priority 1988, dated 1990)

Experiments:
H₂-receptor = target: T1, H₂-receptor (Cavia porcellus, UniProt P47747); experiment: Test B: H₂-receptor antagonism in isolated guinea-pig atrium; format: cell-based; details: test compound 1 x 10⁻⁶ g/ml; histamine (1 x 10⁻⁶ g/ml)-induced increase in beating rate, before and 30 minutes after dosing
T1 construct: from tissue; host or cells: isolated guinea-pig atrial strip
Experimental: Test B (H₂-receptor antagonism in isolated guinea-pig atrium):
The atrial strip isolated from guinea-pig was suspended under an initial tension 0.3 to 0.6 g in an organ bath containing Tyrode solution at 30°C, aerated 95%O₂-5%CO₂ gas. The beating rate and amplitude of contraction of the atrium were recorded by means of a transducer and a polygraph. Histamine (1 x 10⁻⁶ g/ml) was added to the bathing fluid and the increase in beating rate after dosing was measured. Addition of test compounds (1 x 10⁻⁶ g/ml) was made 30 minutes after washing out histamine. Inhibitory effect of test compound was calculated by comparing histamine-induced increases in beating rate before and 30 minutes after dosing with the test compounds.

[1] = tested on: lumen perfused stomach in anesthetized rats; experiment: Test D: Gastric secretion from lumen perfused stomach in anesthetized rats (histamine-stimulated); format: in vivo, Sprague-Dawley rats; details: maximal inhibition of acid output; histamine 3 mg/kg/hr intravenous infusion; test compound 1 mg/kg intravenously
Experimental: Test D (Gastric secretion from lumen perfused stomach in anesthetized rats):
Male Sprague-Dawley rats weighing about 250 g were used. Rats were deprived of food but allowed free access to water for 24 hours. The animals were anesthetized with 1.25 g/kg urethane intraperitoneally. The abdomen was opened and the gastric lumen was perfused with saline throughout the experiment. The perfusate was titrated by an autotitrator with 25 mM sodium hydroxide as a titrant. Gastric secretion was stimulated by intravenous infusion with histamine (3 mg/kg/hr). After reaching plateau, test compound (1 mg/kg) was given intravenously. Drug effect was expressed as maximal inhibition by acid output.

male Sprague-Dawley rats = experiment: Test C: Inhibition of stress ulcer (restraint and water immersion); format: in vivo; details: mean area of ulcers vs control animals; test compound 32 mg/kg orally; seven hours immobilized in water bath at 22°C
Experimental: Test C (Inhibition of stress ulcer):
Five male Sprague-Dawley rats, aged 7 weeks and weighing about 200 g were used per group for the study on stress ulcer after the fast for 24 hours. Each animal was immobilized in a restrain cage and immersed to a level of the xiphoid in a water bath kept 22°C. Each of the test compounds (32 mg/kg) suspended in 0.1% methylcellulose solution was administered orally just before the immobilization. Seven hours later, the animals were sacrificed and their stomachs were removed. The stomach was then fixed with 2% formalin. The area of ulcers was measured for each animal, and percentage of inhibition was calculated by comparing the mean area of ulcers (mm²) in the test animals with that in the control animals.

T1 sequence (P47747 whole entry): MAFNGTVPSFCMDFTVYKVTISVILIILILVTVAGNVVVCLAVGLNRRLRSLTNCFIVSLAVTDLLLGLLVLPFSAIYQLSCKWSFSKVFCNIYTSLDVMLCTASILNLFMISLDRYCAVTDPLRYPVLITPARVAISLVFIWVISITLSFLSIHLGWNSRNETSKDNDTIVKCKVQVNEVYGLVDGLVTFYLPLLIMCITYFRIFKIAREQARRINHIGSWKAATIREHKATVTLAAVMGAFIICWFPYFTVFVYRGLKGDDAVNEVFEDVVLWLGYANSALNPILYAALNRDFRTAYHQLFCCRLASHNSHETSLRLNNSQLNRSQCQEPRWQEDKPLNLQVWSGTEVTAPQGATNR

H₂ Antagonism (%) (H₂-receptor)	SMILES	Inhibition (%) [1] [%]	Inhibition (%) (male Sprague-Dawley rats)
90.7	CNC(=NC#N)NCc1ccc(-c2csc(N=C(N)N)n2)o1 [Test Compound (b), 4-[5-(2-Cyano-3-methylguanidino)methylfuran-2-yl]-2-(diaminomethyleneamino)thiazole]	–	–
89.1	CNC(=O)NCc1ccc(-c2csc(N=C(N)N)n2)o1 [Test Compound (c)]	–	–
–	NC(N)=Nc1nc(-c2ccc(CC(N)=NS(N)(=O)=O)o2)cs1 [Test Compound (d), 4-[5-(2-Amino-2-aminosulfonyliminoethyl)furan-2-yl]-2-(diaminomethyleneamino)thiazole]	99	86.6
